In patent US20020137929A1, “1 - (3-heterocyclylphenyl) isothiourea, -isourea, -guanidine and -amidine herbicidal agents” (Intellectual Property Department, BASF Aktiengesellschaft, priority 1998, published 2002):

Tests used:
[1] = tested on: ECHORC (Watergrass (Calif.)); experiment: Preemergence weed control under flooded paddy conditions; assay type: in vivo, Echinochloa oryzoides; conditions: rated 3-4 weeks after treatment
In short: (§1)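 Ratings on a 0-9 visual scale cover stand, vigor, malformation, size, chlorosis and overall appearance relative to a control, taken three to four weeks post-treatment. Application was into flood water over freshly sown silt loam at roughly 0.0313 to 0.500 kg/ha.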

ABUTH (Velvetleaf) = experiment: Preemergence herbicidal evaluation; assay type: in vivo, Abutilon theophrasti; conditions: rated 4-5 weeks after treatment
In short: (§2)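 Herbicidal effect scored visually, 0-9, at 4 to 5 weeks against a control; compound applied preemergence by aqueous acetone spray to seeded soil at about 0.0156 to 0.500 kg/ha.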

CYPIR (Rice Flatsedge) = experiment: Preemergence weed control under flooded paddy conditions; assay type: in vivo, Cyperus iria; conditions: rated 3-4 weeks after treatment
In short: as §1

[2] = tested on: TRZAWR (Wheat, Winter, cv Riband); experiment: Preemergence herbicidal evaluation; assay type: in vivo, Triticum aestivum; conditions: rated 4-5 weeks after treatment
In short: as §2

[3] = tested on: SAGPY (Arrowhead (Pygmaea)); experiment: Preemergence weed control under flooded paddy conditions; assay type: in vivo, Sagittaria pygmaea; conditions: rated 3-4 weeks after treatment
In short: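 Using flooded silt loam (water 1.5 to 3 cm deep), seeds sown in the top 0.5 cm were exposed preemergence to compound pipetted into the flood at about 0.0313 to 0.500 kg/ha. Effects were scored 0-9 by eye three to four weeks later.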

COCCOC(=O)CN1C(=O)CSC1=Nc1cc(-n2c(=O)cc(C(F)(F)F)n(C)c2=O)c(F)cc1Cl [Compound 107, 2-Methoxyethyl 2-{{2-chloro-5-[3,6-dihydro-3-methyl-2,6-dioxo-4-(trifluoromethyl)-1(2H)-pyrimidinyl]-4-fluorophenyl}imino}-4-oxo-3-thiazolidineacetate]
ECHORC herbicidal effect rating ([1]; 0.0313 kg/ha): 0.0 | ECHORC herbicidal effect rating ([1]; 0.0625 kg/ha): 4.0 | ECHORC herbicidal effect rating ([1]; 0.1250 kg/ha): 4.0 | ECHORC herbicidal effect rating ([1]; 0.2500 kg/ha): 4.0 | Preemergence herbicidal rating ABUTH (ABUTH (Velvetleaf); rate 0.0313 kg/ha): 0.0 | Preemergence herbicidal rating ABUTH (ABUTH (Velvetleaf); rate 0.0625 kg/ha): 1.0 | Preemergence herbicidal rating ABUTH (ABUTH (Velvetleaf); rate 0.1250 kg/ha): 9.0 | Preemergence herbicidal rating ABUTH (ABUTH (Velvetleaf); rate 0.2500 kg/ha): 9.0 | CYPIR herbicidal effect rating (CYPIR (Rice Flatsedge); 0.0313 kg/ha): 0.0 | CYPIR herbicidal effect rating (CYPIR (Rice Flatsedge); 0.0625 kg/ha): 0.0 | CYPIR herbicidal effect rating (CYPIR (Rice Flatsedge); 0.1250 kg/ha): 4.0 | CYPIR herbicidal effect rating (CYPIR (Rice Flatsedge); 0.2500 kg/ha): 7.0 | Preemergence herbicidal rating TRZAWR ([2]; rate 0.0313 kg/ha): 0.0 | Preemergence herbicidal rating TRZAWR ([2]; rate 0.0625 kg/ha): 0.0 | Preemergence herbicidal rating TRZAWR ([2]; rate 0.1250 kg/ha): 0.0 | Preemergence herbicidal rating TRZAWR ([2]; rate 0.2500 kg/ha): 4.0 | SAGPY herbicidal effect rating ([3]; 0.0313 kg/ha): 0.0 | SAGPY herbicidal effect rating ([3]; 0.0625 kg/ha): 0.0 | SAGPY herbicidal effect rating ([3]; 0.1250 kg/ha): 0.0 | SAGPY herbicidal effect rating ([3]; 0.2500 kg/ha): 3.0

CCCCOC(=O)CN1C(=O)CSC1=Nc1cc(-n2c(=O)cc(C(F)(F)F)n(C)c2=O)c(F)cc1Cl [Compound 111]
ECHORC herbicidal effect rating ([1]; 0.0313 kg/ha): 0.0 | ECHORC herbicidal effect rating ([1]; 0.0625 kg/ha): 3.0 | ECHORC herbicidal effect rating ([1]; 0.1250 kg/ha): 6.0 | ECHORC herbicidal effect rating ([1]; 0.2500 kg/ha): 7.0 | Preemergence herbicidal rating ABUTH (ABUTH (Velvetleaf); rate 0.0156 kg/ha): 1.0 | Preemergence herbicidal rating ABUTH (ABUTH (Velvetleaf); rate 0.0313 kg/ha): 0.0 | Preemergence herbicidal rating ABUTH (ABUTH (Velvetleaf); rate 0.0625 kg/ha): 2.0 | Preemergence herbicidal rating ABUTH (ABUTH (Velvetleaf); rate 0.1250 kg/ha): 9.0 | Preemergence herbicidal rating ABUTH (ABUTH (Velvetleaf); rate 0.2500 kg/ha): 9.0 | CYPIR herbicidal effect rating (CYPIR (Rice Flatsedge); 0.0313 kg/ha): 0.0 | CYPIR herbicidal effect rating (CYPIR (Rice Flatsedge); 0.0625 kg/ha): 3.0 | CYPIR herbicidal effect rating (CYPIR (Rice Flatsedge); 0.1250 kg/ha): 4.0 | CYPIR herbicidal effect rating (CYPIR (Rice Flatsedge); 0.2500 kg/ha): 5.0 | Preemergence herbicidal rating TRZAWR ([2]; rate 0.0156 kg/ha): 0.0 | Preemergence herbicidal rating TRZAWR ([2]; rate 0.0313 kg/ha): 0.0 | Preemergence herbicidal rating TRZAWR ([2]; rate 0.0625 kg/ha): 0.0 | Preemergence herbicidal rating TRZAWR ([2]; rate 0.1250 kg/ha): 1.0 | Preemergence herbicidal rating TRZAWR ([2]; rate 0.2500 kg/ha): 4.0 | SAGPY herbicidal effect rating ([3]; 0.0313 kg/ha): 3.0 | SAGPY herbicidal effect rating ([3]; 0.0625 kg/ha): 4.0 | SAGPY herbicidal effect rating ([3]; 0.1250 kg/ha): 5.0 | SAGPY herbicidal effect rating ([3]; 0.2500 kg/ha): 6.0

Cn1c(C(F)(F)F)cc(=O)n(-c2cc(N=C3SCC(=O)N3Cc3ccco3)c(Cl)cc2F)c1=O [Compound 122, 3-{4-Chloro-2-fluoro-5-[(3-furfuryl-4-oxo-2-thiazolidinylidene)amino]phenyl}-1-methyl-6-(trifluoromethyl)-2,4(1H,3H)-pyrimidinedione]
herbicidal effect rating, ECHORC ([1]; 0.0313 kg/ha): 6.0 | herbicidal effect rating, ECHORC ([1]; 0.0625 kg/ha): 7.0 | herbicidal effect rating, ECHORC ([1]; 0.1250 kg/ha): 7.0 | herbicidal effect rating, ECHORC ([1]; 0.2500 kg/ha): 7.0 | Preemergence herbicidal rating ABUTH (ABUTH (Velvetleaf); rate 0.0156 kg/ha): 0.0 | Preemergence herbicidal rating ABUTH (ABUTH (Velvetleaf); rate 0.0313 kg/ha): 0.0 | Preemergence herbicidal rating ABUTH (ABUTH (Velvetleaf); rate 0.0625 kg/ha): 4.0 | Preemergence herbicidal rating ABUTH (ABUTH (Velvetleaf); rate 0.1250 kg/ha): 9.0 | Preemergence herbicidal rating ABUTH (ABUTH (Velvetleaf); rate 0.2500 kg/ha): 9.0 | Preemergence herbicidal rating ABUTH (ABUTH (Velvetleaf); rate 0.5000 kg/ha): 9.0 | herbicidal effect rating, CYPIR (CYPIR (Rice Flatsedge); 0.0313 kg/ha): 4.0 | herbicidal effect rating, CYPIR (CYPIR (Rice Flatsedge); 0.0625 kg/ha): 7.0 | herbicidal effect rating, CYPIR (CYPIR (Rice Flatsedge); 0.1250 kg/ha): 7.0 | herbicidal effect rating, CYPIR (CYPIR (Rice Flatsedge); 0.2500 kg/ha): 8.0 | Preemergence herbicidal rating TRZAWR ([2]; rate 0.0156 kg/ha): 0.0 | Preemergence herbicidal rating TRZAWR ([2]; rate 0.0313 kg/ha): 0.0 | Preemergence herbicidal rating TRZAWR ([2]; rate 0.0625 kg/ha): 0.0 | Preemergence herbicidal rating TRZAWR ([2]; rate 0.1250 kg/ha): 0.0 | Preemergence herbicidal rating TRZAWR ([2]; rate 0.2500 kg/ha): 0.0 | Preemergence herbicidal rating TRZAWR ([2]; rate 0.5000 kg/ha): 1.0 | herbicidal effect rating, SAGPY ([3]; 0.0313 kg/ha): 2.0 | herbicidal effect rating, SAGPY ([3]; 0.0625 kg/ha): 3.0 | herbicidal effect rating, SAGPY ([3]; 0.1250 kg/ha): 5.0 | herbicidal effect rating, SAGPY ([3]; 0.2500 kg/ha): 6.0
